Measured values taken from EP4800036A1, “ANTIBODY OR TROP2 ANTIGEN BINDING FRAGMENT BINDING TO TROP2, ANTI-TROP2 CAR, AND USE” (priority 2023, dated 2025).

T1: Human TROP-2/TACSTD2 Protein, His Tag (ACRO, catalog No. TR2-H5223) (human, UniProt P09758 27-274)
T1 construct: extracellular domain; Bought protein; also called Trop2-His; Trop2-His antigen; not shown: His tag
T1 sequence (looked up): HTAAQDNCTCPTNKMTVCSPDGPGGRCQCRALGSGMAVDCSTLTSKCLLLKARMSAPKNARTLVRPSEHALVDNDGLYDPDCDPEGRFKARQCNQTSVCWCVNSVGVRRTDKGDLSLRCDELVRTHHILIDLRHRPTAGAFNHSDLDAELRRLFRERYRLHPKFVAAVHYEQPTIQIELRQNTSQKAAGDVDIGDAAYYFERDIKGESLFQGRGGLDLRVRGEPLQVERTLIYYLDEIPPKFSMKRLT

B1: anti-Trop2 positive clone 3 (T3), phage scFv (scFv)
scFv: DIQMTQSPSTLSASVGDRVTITCRASQSISSWLAWYQQKPGKAPKLLIYKASSLESGVPPRFSGSGSGAEFTLTISSLQPDDFATYYCQQYNSYPLTFGGGTKVEVKGGGGSGGGGSGGGGSEVQLVQSGGGLVQPGGSLRLSCEDSGFTFSSYWMSWVRQAPGKGLEWVSSISSSSSYIYYADSVKGRFTISRDNAKNSLYLQMNSLRGEDTAVYYCAREQSSSGFDYWGQGTLVTVSS
notes: also called T3 clone; T3 anti-Trop2 scFv

Experiments:
[1] = system: triple-negative breast cancer; details: third-line treatment; cited from earlier work
small cell lung cancer = details: 50 patients with small cell lung cancer; cited from earlier work
advanced NSCLC = details: patients with advanced NSCLC; cited from earlier work
NSCLC = details: 44 patients with NSCLC; cited from earlier work
[2] = biological target: T1, Human TROP-2/TACSTD2 Protein, His Tag …; assay: phage ELISA, Trop2-His coated at 1 µg/mL, anti-M13-HRP detection

| Molecule | disease control rate [1] | patients who experienced tumor shrinkage at least once [1] | progression-free survival (PFS) rate [1] | ORR (small cell lung cancer) | PFS (small cell lung cancer) | clinical benefit rate (complete response + partial response + stable disease ≥ 4 months) (small cell lung cancer) | overall survival (advanced NSCLC) | PFS (NSCLC) | clinical benefit rate (complete response + partial response + stable disease ≥ 4 months) (NSCLC) | objective response rate (ORR) (NSCLC) | binding result [2] |
| --- | --- | --- | --- | --- | --- | --- | --- | --- | --- | --- | --- |
| Sacituzumab govitecan [IMMU-132] | 45% | 74% | 33.3% | 14% | 3.7 months | 34% | 9.5 months | 5.2 months | 43% | 19% | – |
| B1 | – | – | – | – | – | – | – | – | – | – | binds |
